Data from PubChem BioAssay AID248 (DTP/NCI, 2004).
Where “and” joins values, the source holds several entries; their conditions need not be identical. Identical values can stand only once. Inconclusive results and toxic doses are left out. No stated cut-off is given here; in the data, active means T/C of 150% or more; inactive means T/C below 125%.

System: L1210 leukemia ip in BDF1 mice, survival T/C
Test: NCI In Vivo Anticancer Drug Screen. Data for tumor model L1210 Leukemia (intraperitoneal) in B6D2F1 (BDF1) mice
Conditions: endpoint: mean survival time, higher = longer survival
Method in brief: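 Each compound was tested against a transplantable tumor grown in mice. The endpoint was survival, with treated animals benchmarked against vehicle controls as a simple ratio.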

[1] = dose: 100.0 mg/kg/injection, schedule: Q01DX001 (ip), vehicle: carboxymethylcellulose (CMC)
[2] = dose: 200.0 mg/kg/injection, schedule: Q01DX001 (ip), vehicle: carboxymethylcellulose (CMC)
[3] = dose: 400.0 mg/kg/injection, schedule: Q01DX001 (ip), vehicle: carboxymethylcellulose (CMC)
[4] = dose: 100.0 mg/kg/injection, schedule: Q04DX002 (ip), vehicle: saline
[5] = dose: 100.0 mg/kg/injection, schedule: Q01DX001 (ip), vehicle: saline
[6] = dose: 200.0 mg/kg/injection, schedule: Q01DX001 (ip), vehicle: saline
[7] = dose: 400.0 mg/kg/injection, schedule: Q01DX001 (ip), vehicle: saline
[8] = dose: 100.0 mg/kg/injection, schedule: Q04DX002 (ip), vehicle: Klucel (hydroxypropylcellulose) (HPC)

Measured: T/C

COc1cccc2c1C(=O)c1c(O)c3c(c(O)c1C2=O)CC(O)(C(C)=O)CC3OC1CC(NC(=O)C(F)(F)F)C(O)C(C)O1 (centres undefined)
inactive: dose: 0.25 mg/kg/injection, schedule: Q04DX003 (ip), vehicle: water 96 % of control | dose: 0.5 mg/kg/injection, schedule: Q04DX003 (ip), vehicle: water 95 % of control | dose: 1.0 mg/kg/injection, schedule: Q04DX003 (ip), vehicle: water 106 % of control | dose: 2.0 mg/kg/injection, schedule: Q04DX003 (ip), vehicle: water 111 % of control | dose: 4.0 mg/kg/injection, schedule: Q04DX003 (ip), vehicle: water 98 % of control | dose: 8.0 mg/kg/injection, schedule: Q04DX003 (ip), vehicle: water 90 % of control | dose: 14.0 mg/kg/injection, schedule: Q04DX003 (ip), vehicle: water 107 % of control | dose: 16.0 mg/kg/injection, schedule: Q04DX003 (ip), vehicle: water 101 % of control | dose: 21.0 mg/kg/injection, schedule: Q04DX003 (ip), vehicle: water 113 % of control | dose: 25.0 mg/kg/injection, schedule: Q04DX003 (ip), vehicle: water 110 % of control | dose: 32.0 mg/kg/injection, schedule: Q04DX003 (ip), vehicle: water 110 % of control | dose: 50.0 mg/kg/injection, schedule: Q04DX003 (ip), vehicle: water 107 % of control and 112 % of control | dose: 100.0 mg/kg/injection, schedule: Q04DX003 (ip), vehicle: water 112 % of control

CC1OC(OC2C(O)C(O)C(O)C(O)C2O)C(N)CC1N=C(N)C(=O)O (centres undefined)
inactive: [1] 90 % of control | [2] 96 % of control | [3] 100 % of control

O=Cc1ccc2c(c1)c1ccccc1n2C1OC(CO)C(O)C(O)C1O (centres undefined)
inactive: dose: 60.0 mg/kg/injection, schedule: Q04DX002 (ip), vehicle: DMSO 102 % of control | dose: 120.0 mg/kg/injection, schedule: Q04DX002 (ip), vehicle: DMSO 97 % of control

OCC1OC([Se][Se]C2OC(CO)C(O)C(O)C2O)C(O)C(O)C1O (centres undefined)
inactive: dose: 6.25 mg/kg/injection, schedule: Q01DX009 (ip), vehicle: saline 99 % of control | dose: 12.5 mg/kg/injection, schedule: Q01DX009 (ip), vehicle: saline 100 % of control | dose: 25.0 mg/kg/injection, schedule: Q01DX009 (ip), vehicle: saline 100 % of control | [4] 105 % of control

CCCCCCCCC(CCc1ccccc1)CCc1ccccc1
inactive: dose: 100.0 mg/kg/injection, schedule: Q01DX001 (ip), vehicle: saline with Tween-80 93 % of control | dose: 200.0 mg/kg/injection, schedule: Q01DX001 (ip), vehicle: saline with Tween-80 93 % of control | dose: 400.0 mg/kg/injection, schedule: Q01DX001 (ip), vehicle: saline with Tween-80 96 % of control

O=C1C(N2CCCCC2)=C(c2ccccc2)c2ccccc21
inactive: [5] 92 % of control | [6] 94 % of control | [7] 102 % of control

Cc1cc(Cl)ccc1OC(=O)Nc1ccc(Cl)cc1
inactive: [1] 103 % of control | dose: 100.0 mg/kg/injection, schedule: Q01DX009 (ip), vehicle: carboxymethylcellulose (CMC) 95 % of control and 101 % of control | [8] 98 % of control | dose: 100.0 mg/kg/injection, schedule: Q04DX002 (ip), vehicle: carboxymethylcellulose (CMC) 96 % of control and 90 % of control | [2] 111 % of control | dose: 200.0 mg/kg/injection, schedule: Q01DX009 (ip), vehicle: carboxymethylcellulose (CMC) 97 % of control and 111 % of control | dose: 200.0 mg/kg/injection, schedule: Q04DX002 (ip), vehicle: Klucel (hydroxypropylcellulose) (HPC) 92 % of control | dose: 200.0 mg/kg/injection, schedule: Q04DX002 (ip), vehicle: carboxymethylcellulose (CMC) 94 % of control and 97 % of control | [3] 98 % of control | dose: 400.0 mg/kg/injection, schedule: Q01DX009 (ip), vehicle: carboxymethylcellulose (CMC) 97 % of control and 86 % of control | dose: 400.0 mg/kg/injection, schedule: Q04DX002 (ip), vehicle: Klucel (hydroxypropylcellulose) (HPC) 106 % of control | dose: 400.0 mg/kg/injection, schedule: Q04DX002 (ip), vehicle: carboxymethylcellulose (CMC) 94 % of control and 90 % of control

C1=Nc2cc3c(cc2Cn2cccc21)OCO3
inactive: dose: 25.0 mg/kg/injection, schedule: Q04DX002 (ip), vehicle: Klucel (hydroxypropylcellulose) (HPC) 86 % of control | dose: 50.0 mg/kg/injection, schedule: Q04DX002 (ip), vehicle: Klucel (hydroxypropylcellulose) (HPC) 94 % of control | [8] 94 % of control

CCOC(=N)c1ccc(P(=O)(O)O)cc1
inactive: dose: 75.0 mg/kg/injection, schedule: Q01DX001 (ip), vehicle: saline 97 % of control | dose: 150.0 mg/kg/injection, schedule: Q01DX001 (ip), vehicle: saline 96 % of control | dose: 300.0 mg/kg/injection, schedule: Q01DX001 (ip), vehicle: saline 102 % of control

CCCCCOC(=S)S
inactive: dose: 9.37 mg/kg/injection, schedule: Q01DX009 (ip), vehicle: saline 100 % of control | dose: 18.75 mg/kg/injection, schedule: Q01DX009 (ip), vehicle: saline 110 % of control | dose: 37.5 mg/kg/injection, schedule: Q01DX009 (ip), vehicle: saline 98 % of control | [5] 109 % of control | [6] 103 % of control

CCC(C)(C)c1ccc(OCCOS(=O)(=O)c2ccc(C)cc2)cc1
inactive: dose: 100.0 mg/kg/injection, schedule: Q01DX009 (ip), vehicle: saline sonified 96 % of control | dose: 200.0 mg/kg/injection, schedule: Q01DX009 (ip), vehicle: saline sonified 108 % of control | dose: 400.0 mg/kg/injection, schedule: Q01DX009 (ip), vehicle: saline sonified 97 % of control

Clc1ccc(N=Cc2ccccc2)cn1
inactive: dose: 50.0 mg/kg/injection, schedule: Q01DX001 (ip), vehicle: carboxymethylcellulose (CMC) 105 % of control | [1] 88 % of control | [2] 111 % of control | [3] 100 % of control

COc1ccc(CN2CCCN(Cc3ccc(OC)cc3OC)C2c2ccc(F)cc2)c(OC)c1
inactive: dose: 50.0 mg/kg/injection, schedule: Q01DX001 (ip), vehicle: saline 94 % of control | [5] 89 % of control | [6] 94 % of control | [7] 100 % of control

CCN(CC)CCCNc1nnc2c(=O)n(C)c(=O)n(C)c2n1
inactive: dose: 75.0 mg/kg/injection, schedule: Q04DX003 (ip), vehicle: saline 112 % of control | dose: 150.0 mg/kg/injection, schedule: Q04DX003 (ip), vehicle: saline 93 % of control | dose: 300.0 mg/kg/injection, schedule: Q04DX003 (ip), vehicle: saline 100 % of control

Nc1ccccc1-c1ccccc1N
inactive: dose: 25.0 mg/kg/injection, schedule: Q04DX002 (ip), vehicle: saline 100 % of control | dose: 50.0 mg/kg/injection, schedule: Q04DX002 (ip), vehicle: saline 98 % of control | dose: 100.0 mg/kg/injection, schedule: Q01DX009 (ip), vehicle: Klucel (hydroxypropylcellulose) (HPC) 96 % of control | [4] 114 % of control | dose: 100.0 mg/kg/injection, schedule: Q04DX003 (ip), vehicle: Klucel (hydroxypropylcellulose) (HPC) 94 % of control | dose: 200.0 mg/kg/injection, schedule: Q01DX009 (ip), vehicle: Klucel (hydroxypropylcellulose) (HPC) 102 % of control | dose: 200.0 mg/kg/injection, schedule: Q04DX003 (ip), vehicle: Klucel (hydroxypropylcellulose) (HPC) 91 % of control | dose: 400.0 mg/kg/injection, schedule: Q01DX009 (ip), vehicle: Klucel (hydroxypropylcellulose) (HPC) 93 % of control | dose: 400.0 mg/kg/injection, schedule: Q04DX003 (ip), vehicle: Klucel (hydroxypropylcellulose) (HPC) 104 % of control
